Data from the NIST ThermoML archive (doi:10.1007/s10765-008-0390-4).
Numbers after ± are expanded uncertainties.

Experiment: xn = mol fraction of the nth substance listed
Details: 101 kPa, Liquid

c1ccccc1 [benzene] + CCCCO
mass density [kg/m3]
Details	288.15 K	293.15 K	298.15 K	303.15 K	308.15 K	313.15 K
x2 = 0	884.246 ± 0.15	878.918 ± 0.16	873.582 ± 0.16	868.233 ± 0.17	862.871 ± 0.17	857.498 ± 0.17
x2 = 0.0193	882.483 ± 0.16	877.168 ± 0.16	871.844 ± 0.17	866.507 ± 0.17	861.158 ± 0.17	855.809 ± 0.18
x2 = 0.0534	879.595 ± 0.16	874.309 ± 0.16	869.007 ± 0.17	863.694 ± 0.17	858.36 ± 0.18	853.019 ± 0.18
x2 = 0.1013	875.72 ± 0.16	870.495 ± 0.17	865.255 ± 0.17	859.995 ± 0.17	854.713 ± 0.18	849.433 ± 0.18
x2 = 0.1509	871.829 ± 0.17	866.677 ± 0.17	861.506 ± 0.17	856.309 ± 0.18	851.089 ± 0.18	845.861 ± 0.19
x2 = 0.2016	867.984 ± 0.17	862.908 ± 0.17	857.807 ± 0.18	852.685 ± 0.18	847.536 ± 0.19	842.375 ± 0.19
x2 = 0.2018	867.955 ± 0.17	862.874 ± 0.17	857.776 ± 0.18	852.651 ± 0.18	847.499 ± 0.19	842.342 ± 0.19
x2 = 0.25	864.382 ± 0.17	859.372 ± 0.18	854.344 ± 0.18	849.285 ± 0.19	844.201 ± 0.19	839.11 ± 0.19
x2 = 0.2997	860.741 ± 0.18	855.806 ± 0.18	850.849 ± 0.19	845.866 ± 0.19	840.854 ± 0.19	835.83 ± 0.2
x2 = 0.3532	856.936 ± 0.18	852.081 ± 0.19	847.201 ± 0.19	842.294 ± 0.19	837.357 ± 0.2	832.4 ± 0.2
x2 = 0.4019	853.504 ± 0.19	848.721 ± 0.19	843.914 ± 0.19	839.08 ± 0.2	834.214 ± 0.2	829.324 ± 0.2
x2 = 0.4525	850 ± 0.19	845.3 ± 0.19	840.574 ± 0.2	835.817 ± 0.2	831.029 ± 0.2	826.217 ± 0.21
x2 = 0.4998	846.738 ± 0.2	842.111 ± 0.2	837.46 ± 0.2	832.778 ± 0.2	828.059 ± 0.21	823.32 ± 0.21
x2 = 0.5532	843.129 ± 0.2	838.594 ± 0.2	834.03 ± 0.21	829.436 ± 0.21	824.804 ± 0.21	820.157 ± 0.22
x2 = 0.6004	839.985 ± 0.2	835.529 ± 0.21	831.042 ± 0.21	826.525 ± 0.21	821.974 ± 0.22	817.402 ± 0.22
x2 = 0.6493	836.693 ± 0.21	832.317 ± 0.21	827.91 ± 0.21	823.473 ± 0.22	819.001 ± 0.22	814.449 ± 0.22
x2 = 0.701	833.239 ± 0.21	828.949 ± 0.22	824.631 ± 0.22	820.282 ± 0.22	815.895 ± 0.23	811.483 ± 0.23
x2 = 0.7502	829.979 ± 0.22	825.772 ± 0.22	821.537 ± 0.22	817.269 ± 0.23	812.965 ± 0.23	808.64 ± 0.23
x2 = 0.7945	827.051 ± 0.22	822.92 ± 0.22	818.759 ± 0.23	814.569 ± 0.23	810.343 ± 0.23	806.094 ± 0.24
x2 = 0.8511	823.296 ± 0.23	819.258 ± 0.23	815.196 ± 0.23	811.102 ± 0.23	806.975 ± 0.24	802.822 ± 0.24
x2 = 0.8961	820.299 ± 0.23	816.336 ± 0.23	812.348 ± 0.24	808.331 ± 0.24	804.274 ± 0.24	800.189 ± 0.24
x2 = 0.951	816.663 ± 0.24	812.791 ± 0.24	808.897 ± 0.24	804.977 ± 0.24	801.025 ± 0.25	797.051 ± 0.25

ClC(Cl)Cl [trichloromethane] + CCCCO
mass density [kg/m3]
Details	288.15 K	293.15 K	298.15 K	303.15 K	308.15 K	313.15 K
x2 = 0	1498.08 ± 0.47	1488.64 ± 0.46	1479.15 ± 0.45	1469.61 ± 0.45	1460.03 ± 0.44	1450.41 ± 0.43
x2 = 0.0493	1458.97 ± 0.47	1449.82 ± 0.46	1440.63 ± 0.45	1431.4 ± 0.45	1422.12 ± 0.44	1412.82 ± 0.43
x2 = 0.0994	1420.12 ± 0.44	1411.28 ± 0.43	1402.39 ± 0.42	1393.45 ± 0.42	1384.45 ± 0.41	1375.41 ± 0.4
x2 = 0.1499	1381.86 ± 0.41	1373.34 ± 0.41	1364.77 ± 0.4	1356.15 ± 0.39	1347.47 ± 0.38	1338.76 ± 0.38
x2 = 0.2003	1344.3 ± 0.39	1336.11 ± 0.38	1327.86 ± 0.37	1319.57 ± 0.36	1311.21 ± 0.36	1302.8 ± 0.35
x2 = 0.2476	1309.65 ± 0.36	1301.76 ± 0.35	1293.82 ± 0.35	1285.82 ± 0.34	1277.77 ± 0.33	1269.66 ± 0.33
x2 = 0.279	1286.97 ± 0.34	1279.28 ± 0.34	1271.53 ± 0.33	1263.75 ± 0.33	1255.9 ± 0.32	1248.02 ± 0.31
x2 = 0.3474	1238.34 ± 0.31	1231.07 ± 0.3	1223.75 ± 0.3	1216.37 ± 0.29	1208.94 ± 0.29	1201.48 ± 0.28
x2 = 0.4003	1201.44 ± 0.28	1194.48 ± 0.28	1187.48 ± 0.27	1180.42 ± 0.27	1173.31 ± 0.26	1166.16 ± 0.26
x2 = 0.461	1159.74 ± 0.26	1153.14 ± 0.25	1146.5 ± 0.25	1139.81 ± 0.24	1133.06 ± 0.23	1126.29 ± 0.23
x2 = 0.4993	1133.81 ± 0.24	1127.43 ± 0.23	1121 ± 0.23	1114.53 ± 0.22	1108 ± 0.22	1101.42 ± 0.21
x2 = 0.5517	1098.6 ± 0.22	1092.6 ± 0.21	1086.4 ± 0.21	1080.3 ± 0.2	1074 ± 0.2	1067.8 ± 0.19
x2 = 0.5989	1067.38 ± 0.2	1061.55 ± 0.19	1055.69 ± 0.19	1049.78 ± 0.18	1043.81 ± 0.18	1037.8 ± 0.17
x2 = 0.651	1033.23 ± 0.18	1027.7 ± 0.17	1022.12 ± 0.17	1016.5 ± 0.17	1010.82 ± 0.16	1005.11 ± 0.16
x2 = 0.7008	1001.03 ± 0.16	995.76 ± 0.16	990.45 ± 0.16	985.097 ± 0.16	979.698 ± 0.17	974.26 ± 0.17
x2 = 0.7485	970.42 ± 0.17	965.404 ± 0.18	960.349 ± 0.18	955.255 ± 0.18	950.115 ± 0.18	944.94 ± 0.18
x2 = 0.7987	938.452 ± 0.19	933.697 ± 0.19	928.907 ± 0.2	924.082 ± 0.2	919.208 ± 0.2	914.297 ± 0.2
x2 = 0.8495	906.492 ± 0.21	901.999 ± 0.21	897.472 ± 0.21	892.91 ± 0.22	888.303 ± 0.22	883.67 ± 0.22
x2 = 0.8953	877.854 ± 0.23	873.588 ± 0.23	869.292 ± 0.23	864.961 ± 0.23	860.59 ± 0.24	856.188 ± 0.24
x2 = 0.9475	845.53 ± 0.25	841.51 ± 0.25	837.462 ± 0.25	833.386 ± 0.25	829.272 ± 0.26	825.138 ± 0.26
